{"source": "patent US5747524A", "about": "“Cannabinoid receptor antagonists” (Eli Lilly and Company, priority 1996, dated 1998)", "key": {"human CB-1 receptor": {"target": "human CB-1 receptor (Homo sapiens, UniProt P21554)", "sequence (P21554 whole entry)": "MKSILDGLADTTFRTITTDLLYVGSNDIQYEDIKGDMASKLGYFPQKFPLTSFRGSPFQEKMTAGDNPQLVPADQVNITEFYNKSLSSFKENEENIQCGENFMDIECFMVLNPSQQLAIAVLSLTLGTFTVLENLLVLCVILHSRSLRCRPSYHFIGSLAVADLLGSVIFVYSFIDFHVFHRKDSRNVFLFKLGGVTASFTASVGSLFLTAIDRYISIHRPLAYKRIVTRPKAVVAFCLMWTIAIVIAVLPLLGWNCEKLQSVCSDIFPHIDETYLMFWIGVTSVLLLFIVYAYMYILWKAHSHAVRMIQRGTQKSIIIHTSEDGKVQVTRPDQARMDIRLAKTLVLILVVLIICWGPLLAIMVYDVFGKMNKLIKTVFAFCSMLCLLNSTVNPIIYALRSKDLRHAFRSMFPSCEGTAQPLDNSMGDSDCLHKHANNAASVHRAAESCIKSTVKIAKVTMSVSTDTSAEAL", "experiment": "Radioligand binding assay, competition with [^3 H]CP55,940 on Ltk cell membranes"}, "[1]": {"tested_on": "CB-1 receptor (CHO cells)", "experiment": "Assay of cAMP accumulation in CHO cells expressing the cannabinoid receptor (forskolin, anandamide)", "assay_type": "cell-based", "protocol": "Assay of CAMP accumulation.\nCHO cells were preincubated in growth media with forskolin (10^-6 M) with or without anandamide for 4 hours Cyclic AMP accumulation was measured over 5 minutes after exchanging the growth media with serum free media containing forskolin (10^-6 M) and anandamide, with or without antagonists as indicated. Data are the mean ±S.E. of three experiments performed in triplicate. […] . […] ;"}, "[2]": {"tested_on": "N-type calcium channel via the CB-1 receptor (N18 cells)", "experiment": "Effect on N-type calcium channel currents, whole-cell voltage clamp in N18 neuroblastoma cells", "assay_type": "cell-based", "protocol": "Effect on N-type Calcium Channel Currents\nSpecifically, the compounds of formula I open the N-type calcium channels, which are closed by either anandamide or the cannabinoids (see: Mackie, K. and Hille, B., Proc. Natl. Acad. Sci., 89, p.3825-3829 (1992)).\nN18 (neuroblastoma cell line) cells (passages 32-41) were grown on glass coverslip fragments in DMEM plus 5% (fetal bovine serum)(FBS, using standard cell culture techniques. Six to 14 days before recording, cells were \"differentiated\" by changing the medium to DMEM plus 0.5% FBS plus 2% dimethylsulfoxide. In PTX (Pertussis Toxin) experiments, differentiated cells were grown for an additional 16-20 hours in medium containing 500 ng/ml PTX. Control cells were treated identically, except that […].\nCurrents were recorded using the whole-cell voltage-clamp technique. Pipettes were pulled from hematocrit glass (VWR) and fire polished. The pipette solution contained (in mM) 100 CsCl, 10 EGTA, 5 MgCl2, 40 HEPES, 3 Na2 ATP, and 0.2 GTP, pH 7.30 with CsOH. For recording, a coverslip containing cells was transferred to the recording chamber (200 μl) and constantly perfused at a rate of 1-2 ml/min with an external solution containing (in mM) 160 NaCl, 5 CaCl2, 4 KCl, 1 MgCl2, 10 HEPES, and 8 glucose, pH 7.35 with NaOH. Tetrodotoxin (200 nM) was added to block voltage-gated sodium currents, and bovine serum albumin (3 μM) was present in all recording solutions to decrease adsorption of cannabinoids. Subsequently the cannabinoid agonist WIN 55,212 and the compounds of this invention were added. ICa was measured near the end of a 25-msec depolarizing pulse to 0 mV and was defined as that component of the current sensitive to 100 μM CdCl2. Solution reservoirs were selected by means of a series of solenoid valves, and solution changes were accomplished in <1 min. In all experiments the cells were held under voltage clamp at a holding potential of -65 mV. Voltage protocols were generated and data were digitized, recorded, and analyzed using BASIC-FASTLAB (Indec Systems, Capitola, Calif.). Currents were sampled at 4 kHz and junction potentials are uncorrected. To control for potential response variations with passage number and duration of differentiation, experimental and control measurements were alternated whenever possible. Where appropriate, data are expressed as mean ±standard error."}, "[3]": {"tested_on": "anandamide-induced sedation in C57BL/6J mice", "experiment": "Open Field Assay of mouse behavior (Digiscan Automated Open Field), sedation caused by anandamide", "assay_type": "in vivo", "conditions": "for Effect on animal's movements (in words): Horizontal Exploratory Activity and Total Distance Exploratory Behavior", "protocol": "In Vivo Effects of Anandamide Antagonists\nThe Open Field Assay evaluates the motion (both horizonal and vertical) of a mouse when placed in a large, open area. […] The mouse is placed in the center of a large area of a device which measues the number of vertical and horizontal movements of the mouse (Digiscan Automated Open Field). Each test session is of 5 minute duration. At the end of this time period, the mouse is removed from the scanner and the recorded data are automatically analyzed and satisically evaluated. Further details are given in Crawley, J., J. Neurosci., 12(9), p. 3380-3391 (1992)."}, "[4]": {"tested_on": "N-type calcium channel via the CB-1 receptor (N18 cells)", "conditions": "Felder, et al.; cited from earlier work"}, "[5]": {"conditions": "Vehicle + anandamide, 2 mg/kg i.p., 5 min session"}}}
{"smiles": "COc1ccc2c(C(=O)c3ccc(C#N)cc3)c(-c3ccc(C)cc3)oc2c1", "note": "[Example 3, [6-Methoxy-2-(4-methylphenyl)benzo[b]furan-3-yl][4-cyanophenyl]methanone]", "values": [{"measurement": "Ki", "setting": "human CB-1 receptor", "value": 134, "unit": "nM"}]}
{"smiles": "COc1ccc(-c2oc3cc(OC)ccc3c2C(O)c2ccc(OC)cc2)cc1", "note": "(stereo not shown) [Example 15, [6-Methoxy-2-(4-methoxyphenyl)benzo[b]furan-3-yl] [4-methoxyphenyl]methanol]", "values": [{"measurement": "Ki", "setting": "human CB-1 receptor", "value": 25800, "unit": "nM"}]}
{"smiles": "COc1ccc(-c2oc3cc(OC)ccc3c2C(=O)c2ccc(OS(=O)(=O)C(F)(F)F)cc2)cc1", "note": "[Example 5, [6-Methoxy-2-(4-methoxyphenyl)-benzo[b]furan-3-yl]-3-(phenyl-4-triflate)-methanone]", "values": [{"measurement": "Ki", "setting": "human CB-1 receptor", "value": 490, "unit": "nM"}]}
{"smiles": "COc1ccc(-c2oc3cc(OC)ccc3c2C(=O)c2ccc(C#N)cc2)cc1", "note": "[Example 6, [6-Methoxy-2-(4-methoxyphenyl)-benzo[b]furan-3-yl]-3-(4-cyanophenyl)-methanone]", "values": [{"measurement": "effect on cAMP (in words)", "setting": "[1]", "value": "[…]"}, {"measurement": "IC50", "setting": "[1]; CHO cells, forskolin + anandamide, read-out: IC50, inhibition of the biological action of anandamide (negates decrease in cAMP)", "value": "[…]"}, {"measurement": "cAMP accumulation", "setting": "[1]; Cmpd.6 (100 μM) alone", "value": "[…]"}, {"measurement": "cAMP accumulation", "setting": "[1]; FSK + ANM + Cmpd.6 (10 nM)", "value": "[…]"}, {"measurement": "cAMP accumulation", "setting": "[1]; FSK + ANM + Cmpd.6 (100 nM)", "value": "[…]"}, {"measurement": "cAMP accumulation", "setting": "[1]; FSK + ANM + Cmpd.6 (1 μM)", "value": "[…]"}, {"measurement": "cAMP accumulation", "setting": "[1]; FSK + ANM + Cmpd.6 (10 μM)", "value": "[…]"}, {"measurement": "cAMP accumulation", "setting": "[1]; FSK + ANM + Cmpd.6 (100 μM)", "value": "[…]"}, {"measurement": "cAMP accumulation", "setting": "[1]; FSK + Cmpd.6 (100 μM), no anandamide", "value": "[…]"}, {"measurement": "Effect on N-type calcium channel (in words)", "setting": "[2]", "value": "opening the N-type calcium channel via the CB-1 receptor"}, {"measurement": "Cell current", "setting": "[2]; Cmpd.6 (1 μM) alone", "value": -150, "unit": "pA"}, {"measurement": "Cell current", "setting": "[2]; Oxo-M + Cmpd.6 (specificity control)", "value": -60, "unit": "pA"}, {"measurement": "Cell current", "setting": "[2]; WIN + Cmpd.6", "value": -150, "unit": "pA"}, {"measurement": "Total Distance Exploratory Behavior, Digiscan Total Distance/5 min", "setting": "[3]; Cmpd.6 20 mg/kg i.p., 28 min before anandamide 2 mg/kg i.p., *p < 0.01", "value": 300}, {"measurement": "Horizontal Exploratory Behavior, Digiscan Horizontal Activity/5 min.", "setting": "[3]; Cmpd.6 20 mg/kg i.p., 28 min before anandamide 2 mg/kg i.p., *p < .05", "value": 900}, {"measurement": "Effect on animal's movements (in words)", "setting": "[3]", "value": "reversed"}]}
{"smiles": "COc1ccc(Cc2c(-c3ccc(OC)cc3)oc3cc(OC)ccc23)cc1", "note": "[Example 16, [6-Methoxy-2-(4-methoxyphenyl)benzo[b]furan-3-yl][4-methoxyphenyl]methane]", "values": [{"measurement": "Ki", "setting": "human CB-1 receptor", "value": 5300, "unit": "nM"}]}
{"smiles": "COc1ccc(-c2oc3cc(OC)ccc3c2C(=O)c2ccc(O)cc2)cc1", "note": "[Example 4, [6-Methoxy-2-(4-methoxyphenyl)-benzo[b]furan-3-yl]-3-(4-hydroxyphenyl)-methanone]", "values": [{"measurement": "Ki", "setting": "human CB-1 receptor", "value": 4120, "unit": "nM"}]}
{"smiles": "CCCCOc1ccc(C(=O)c2c(-c3ccc(OC)cc3)sc3cc(OC)ccc23)cc1", "note": "[Example 13, [6-Methoxy-2-(4-methoxyphenyl)benzo[b]thien-3-yl][4-n-butyloxyphenyl]methanone]", "values": [{"measurement": "Ki", "setting": "human CB-1 receptor", "value": 430, "unit": "nM"}]}
{"smiles": "C=C[C@@]1(C)CC(=O)[C@]2(O)[C@@]3(C)[C@@H](O)CCC(C)(C)[C@@H]3[C@H](O)[C@H](OC(C)=O)[C@@]2(C)O1", "note": "[Forskolin, reference compound]", "values": [{"measurement": "effect on cAMP (in words)", "setting": "[1]", "value": "raises the level of cAMP above the basal level"}, {"measurement": "cAMP accumulation", "setting": "[1]; forskolin (FSK) alone, 10^-6 M", "value": 30, "unit": "pM/mL"}]}
{"smiles": "COc1ccc(C(=O)c2c(-c3ccc(OC)cc3)sc3cc(OC)ccc23)cc1", "note": "[Example 7, [6-methoxy-2-(4-methoxyphenyl)benzo[b]thien-3-yl][4-methoxyphenyl]methanone]", "values": [{"measurement": "Ki", "setting": "human CB-1 receptor", "value": 3600, "unit": "nM"}]}
{"smiles": "COc1ccc(-c2sc3cc(OC)ccc3c2C(=O)c2ccc(O)cc2)cc1", "note": "[Example 8, [6-methoxy-2-(4-methoxyphenyl)benzo[b]thien-3-yl][4-hydroxyphenyl]methanone]", "values": [{"measurement": "Ki", "setting": "human CB-1 receptor", "value": 950, "unit": "nM"}]}
{"smiles": "CCCCC/C=C\\C/C=C\\C/C=C\\C/C=C\\CCCC(=O)NCCO", "note": "[Anandamide, N-ethanolamine amide of arachidonic acid, reference compound]", "values": [{"measurement": "effect on cAMP (in words)", "setting": "[1]", "value": "inhibits the increase of cAMP induced by the forskolin"}, {"measurement": "cAMP accumulation", "setting": "[1]; FSK + ANM, no antagonist", "value": 5, "unit": "pM/mL"}, {"measurement": "cAMP accumulation", "setting": "[1]; anandamide (1 μM) alone", "value": "< 5", "unit": "pM/mL"}, {"measurement": "Effect on animal's movements (in words)", "setting": "[3]", "value": "severe depression and sedation of the animal's movements"}, {"measurement": "Horizontal Exploratory Behavior, Digiscan Horizontal Activity/5 min.", "setting": "[3]; [5]", "value": 200}, {"measurement": "Total Distance Exploratory Behavior, Digiscan Total Distance/5 min", "setting": "[3]; [5]", "value": 50}]}
{"smiles": "CCCOc1ccc(C(=O)c2c(-c3ccc(OC)cc3)sc3cc(OC)ccc23)cc1", "note": "[Example 12, [6-Methoxy-2-(4-methoxyphenyl)benzo[b]thien-3-yl] [4-n-propyloxyphenyl]methanone]", "values": [{"measurement": "Ki", "setting": "human CB-1 receptor", "value": 1540, "unit": "nM"}]}
{"smiles": "Cc1c(C(=O)c2cccc3ccccc23)c2cccc3c2n1[C@H](CN1CCOCC1)CO3", "note": "[WIN 55,212, reference compound]", "values": [{"measurement": "Effect on N-type calcium channel (in words)", "setting": "[2]", "value": "inhibits the N-type calcium channel via the CB-1 receptor"}, {"measurement": "Cell current", "setting": "[2]; WIN 55,212 (100 nM) alone, Table 3", "value": -60, "unit": "pA"}, {"measurement": "Current after WIN 55,212", "setting": "[2]; agonist inhibits N-type calcium channel", "value": -65, "unit": "pA"}, {"measurement": "Action compared with anandamide (in words)", "setting": "[4]", "value": "acts the same as anandamide"}]}
